In US11603524B2 (priority 2015, dated 2023):
Read-outs that look alike come from different tables or passages of the source.

Tests used:
[1] = target: T1, A8/A0, oxalate decarboxylase from Agrocybe aegerita, SEQ ID NO: 42 (Cyclocybe aegerita, UniProt A0A8S0X585); experiment: Enzyme kinetics, oxalate degradation by A8/A0 OxDC; format: biochemical
T1 construct: A0 from fungal cells (homogenate), A8 from culture supernatant of A. aegerita; A8 also recombinant in E. coli (pColdIV, pOTIpr or pET)
T1 sequence (A0A8S0X585 with tags, fused parts or gaps): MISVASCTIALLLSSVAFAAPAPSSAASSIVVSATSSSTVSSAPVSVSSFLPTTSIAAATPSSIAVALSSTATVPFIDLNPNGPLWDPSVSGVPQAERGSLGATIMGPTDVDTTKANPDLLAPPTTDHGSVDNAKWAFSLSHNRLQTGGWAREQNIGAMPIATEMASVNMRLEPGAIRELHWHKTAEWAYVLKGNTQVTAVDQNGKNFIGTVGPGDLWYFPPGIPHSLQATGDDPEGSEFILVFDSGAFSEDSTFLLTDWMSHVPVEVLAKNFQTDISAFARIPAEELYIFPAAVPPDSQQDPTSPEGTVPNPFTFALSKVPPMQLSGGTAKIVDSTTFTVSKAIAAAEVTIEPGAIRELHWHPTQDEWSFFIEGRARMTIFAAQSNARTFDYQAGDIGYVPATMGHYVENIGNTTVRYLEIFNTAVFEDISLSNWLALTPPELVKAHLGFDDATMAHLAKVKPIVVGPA
Method: (§1) The enzyme kinetics of OxDC from four different species, Bce, Bcl, Cb6301_D29, and A8 were measured and compared to known kinetic data of YvrK. […] The A8 enzyme was measured at four independent pH's of: 5.0, 4.0, 3.5 and 3.0. […] The reaction was terminated by adding 2.5N H2SO4, and analyzed for formate content by HPLC, as described in Example 1. The reaction without oxalate was included as negative control. The initial reaction rates during the first 5 minutes were determined for substrate concentrations between 0.024-12.5 mM, using same procedure described in Example 1.
(§2) To determine the kinetic parameters, kcat and Km, the reaction rates v0 at different substrate concentration [S] were fit to Michaelis-Menten equation in KaleidaGraph software: v0=kcat*[E]t*[S]/(Km+[S])
(§3) Unprotonated glutamic acids in an undisrupted active site are more likely to be kept unprotonated than the equivalent residues in a disrupted active site (such as the active site of a disrupted hexamer).

[2] = test system: oxalate decarboxylase (OxDC) enzymes of Table 5; experiment: Catalytic efficiency of the OxDC enzymes (range); format: biochemical; conditions: see Table 5
Method: (§4) The enzyme kinetics of OxDC from four different species, Bce, Bcl, Cb6301_D29, and A8 were measured and compared to known kinetic data of YvrK. […] The reaction was terminated by adding 2.5N H2SO4, and analyzed for formate content by HPLC, as described in Example 1. The reaction without oxalate was included as negative control. The initial reaction rates during the first 5 minutes were determined for substrate concentrations between 0.024-12.5 mM, using same procedure described in Example 1.

[3] = test system: oxalate decarboxylases A8, Cb6301, Cb6312, Cb6803 and Bce; experiment: Affinity for oxalate of A8, Cb6301, Cb6312, Cb6803 and Bce (range); format: biochemical
Method: as §4

[4] = target: T2, Cb6301, oxalate decarboxylase from Synechococcus elongates 6301, SEQ ID NO: 2 (Synechococcus elongatus, UniProt A0A0H3K3X3); experiment: Enzyme kinetics, oxalate, Cb6301 OxDC; format: biochemical; conditions: Cb6301, pH 3.0 and below
T2 construct: native trimer; the kinetic measurement was probably on the D29 form
T2 sequence (A0A0H3K3X3 1-389): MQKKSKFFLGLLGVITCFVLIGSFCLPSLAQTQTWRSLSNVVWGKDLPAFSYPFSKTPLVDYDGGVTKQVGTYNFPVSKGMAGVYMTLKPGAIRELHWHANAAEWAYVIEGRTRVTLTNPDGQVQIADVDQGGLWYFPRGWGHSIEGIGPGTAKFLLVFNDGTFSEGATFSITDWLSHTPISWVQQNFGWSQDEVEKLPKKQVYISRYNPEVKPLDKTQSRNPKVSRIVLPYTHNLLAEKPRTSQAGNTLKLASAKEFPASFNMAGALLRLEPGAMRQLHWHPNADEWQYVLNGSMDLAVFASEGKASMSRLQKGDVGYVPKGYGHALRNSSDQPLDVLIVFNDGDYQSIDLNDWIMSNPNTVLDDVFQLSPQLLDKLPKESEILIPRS
Method: as §4

[5] = test system: YvrK, oxalate decarboxylase from Bacillus subtilis, SEQ ID NO: 47; conditions: cited from earlier work
[6] = target: T3, Bce, oxalate decarboxylase from Bacillus cereus, SEQ ID NO: 1 (Bacillus cereus, UniProt Q81GZ6); experiment: Enzyme kinetics, oxalate degradation by Bce OxDC; conditions: pH 3.0 and below
T3 sequence (Q81GZ6 entry or part of it): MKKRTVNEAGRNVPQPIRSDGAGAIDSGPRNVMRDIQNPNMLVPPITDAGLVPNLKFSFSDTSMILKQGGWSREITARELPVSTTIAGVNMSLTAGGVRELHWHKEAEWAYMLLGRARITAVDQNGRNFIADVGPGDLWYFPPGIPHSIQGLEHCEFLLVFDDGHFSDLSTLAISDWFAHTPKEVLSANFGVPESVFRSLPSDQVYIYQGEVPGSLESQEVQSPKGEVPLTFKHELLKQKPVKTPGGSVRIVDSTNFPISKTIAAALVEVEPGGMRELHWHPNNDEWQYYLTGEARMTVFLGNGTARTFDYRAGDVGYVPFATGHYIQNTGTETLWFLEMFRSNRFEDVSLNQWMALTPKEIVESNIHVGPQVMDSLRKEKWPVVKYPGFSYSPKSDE
Method: (§5) For determining the pH activity profile of enzymes activity was determined from pH 1.5 to 8.0 using a combination of citrate and phosphate buffers (50 mM). Test sample is added to pre-heated reaction buffer and incubated at 37° C., shaking at 1100 rpm, for a range of set time points (t). The reaction is quenched at time t±5 seconds using 2.5 N H2SO4 at a 10% rate of acid to reaction mixture. The quenched reaction mixture is filtered and analyzed for formate concentration using an isocratic ion exclusion HPLC method.
(§6) The quenched reaction mixture is filtered and analyzed on an Agilent 1100 series HPLC system equipped with Rezex™ ROA-Organic Acid H+ (8%), LC Column (300×7.8 mm) from Phenomenex. Injection volume is 40 μl, and mobile phase is 5 mM H2SO4 (Isocratic) with flow rate at 0.6 mL/min and column temperature at 40° C. Standards of oxalic acid and formic acid are analyzed during every batch to prepare the standard curves. The running time between each injection is 20 min, and oxalic acid and formic acid are eluted at around 8 min and 16 min, respectively, detected at wavelength 210 nm.
(§7) The A8 enzyme was measured at four independent pH's of: 5.0, 4.0, 3.5 and 3.0. […] The reaction was terminated by adding 2.5N H2SO4, and analyzed for formate content by HPLC, as described in Example 1. […] The initial reaction rates during the first 5 minutes were determined for substrate concentrations between 0.024-12.5 mM, using same procedure described in Example 1.

[7] = target: T3, Bce, oxalate decarboxylase from Bacillus cereus, SEQ ID NO: 1; conditions: 2 mM chemical, 6 days at 40° C., pH 9.5, tested at pH 3, against Bce 40° C. control
Method: as §5
Injection volume is 40 μl, and mobile phase is 5 mM H2SO4 (Isocratic) with flow rate at 0.6 mL/min and column temperature at 40° C. Standards of oxalic acid and formic acid are analyzed during every batch to prepare the standard curves. The running time between each injection is 20 min, and oxalic acid and formic acid are eluted at around 8 min and 16 min, respectively, detected at wavelength 210 nm.
Several different chemicals at final concentrations of 2 mM were added into the purified OxDC enzymes solution of Bce or Cb6301_D29, obtained as Example 3. After mixing well, these mixtures, in 50 mM Arginine at pH 9.5, were incubated at 40° C. without shaking (still) for 6 days. The enzymes themselves, without added chemicals, were incubated at 40° C. and 4° C. as controls. […]

[8] = test system: O=C(O)C(=O)O; experiment: purified protein, by the assay type; conditions: other: Bce, pH 3.0, 37° C.
Method: as §5, §6, §7

[9] = substrate: O=C(O)C(=O)O; experiment: purified protein, by the assay type; format: biochemical, Bacillus clausii; conditions: other: Bcl, oxalate, pH 3.0, 37° C.
Method: as §5, §6, §7

[10] = substrate: O=C(O)C(=O)O; experiment: purified protein, by the assay type; format: biochemical, Synechococcus elongates 6301; conditions: other: Cb6301_D29, oxalate, pH 3.0, 37° C.
Method: as §1, §2

[11] = substrate: O=C(O)C(=O)O; experiment: purified protein, by the assay type; format: biochemical, Agrocybe aegerita
Method: as §1, §2, §3

[12] = other: A8, pH 3.0, 37° C., pH 3.0, 37.0 °C

With `O=C(O)C(=O)O` [oxalate] the Km ([1]; A8/A0, pH 3.0 and below) was under 1000 µM, the “Km as a function of pH” value ([1]; A8, pH 5.0, 4.0, 3.5 and 3.0) was “decreases as the pH becomes more acidic” and the catalytic efficiency [2] was 871-77000 conversions/M/s. For the same molecule, the Km [3] was 80 to 500 µM, the Km [4] was under 1000 µM and the Km ([5]; YvrK, oxalate, pH 4.2, 22° C.) was 8400 µM. The Km ([5]; YvrK, pH 4.0) was 8400 µM, the kcat ([5]; YvrK, pH 4.2, 22° C.) was 53 s⁻¹ and the kcat/KM ([5]; YvrK, pH 4.2, 22° C.) was 6310 M⁻¹ s⁻¹. The Km ([5]; Yvrk, pH not given) was 8400 µM and the Km [6] was under 1000 µM.

With `O=C(O)CN(CCN(CC(=O)O)CC(=O)O)CC(=O)O` [EDTA] the enzyme activity [7] was “decreases significantly”.

“Bce, oxalate decarboxylase from Bacillus cereus, SEQ ID NO: 1 (Bacillus cereus ATCC 14579)” gave a kcat [8] of 11.2 s⁻¹ and a kcat/Km [8] of 35000 M⁻¹ s⁻¹.

B1: Bcl, oxalate decarboxylase from Bacillus clausii, SEQ ID NO: 41 (Shouchella clausii KSM-K16) (protein)
chain: MKRGDNVKPLKGNPNIPQPIRADGAGGVDRGPRNLMRDLQNPNILVPPETDRGLIPNLRFSFSDAHMQLNHGGWSREITQRDLPIATTLAGVNMSLTPGGVRELHWHKQAEWSYMLLGHARITAVDQNGRNFIADVGPGDLWYFPPGIPHSIQGLDDGCEFLLVFDDGMFSDLSTLSLSDWMAHTPKDVLSANFGVPESVFATIPTEQVYIYQDEVPGPLQSQQINSPYGAVPQTFKHELLKQPPLVTPGGSVRIVDSRNFPVSKTIAAALVEVEPGAMREMHWHPNNDEWQYYLTGQARMTVFTGNGVARTFDYRAGDVGYVPFATGHYIQNTGNESVWFLEMFKSDRFEDVSLNQWLALTPTELVQHNIHVDSKFTNKLRKEKWPVVKYPTI
Molecule B1 has a Km [9] of 1200 µM, a kcat [9] of 1.05 s⁻¹ and a kcat/Km [9] of 871 M⁻¹ s⁻¹.

B2: Cb6301_D29, oxalate decarboxylase from Synechococcus elongates 6301 where the first 29 amino acids at the n-terminus has been removed, SEQ ID NO: 3 … (protein)
chain: MQTQTWRSLSNVVWGKDLPAFSYPFSKTPLVDYDGGVTKQVGTYNFPVSKGMAGVYMTLKPGAIRELHWHANAAEWAYVIEGRTRVTLTNPDGQVQIADVDQGGLWYFPRGWGHSIEGIGPGTAKFLLVFNDGTFSEGATFSITDWLSHTPISWVQQNFGWSQDEVEKLPKKQVYISRYNPEVKPLDKTQSRNPKVSRIVLPYTHNLLAEKPRTSQAGNTLKLASAKEFPASFNMAGALLRLEPGAMRQLHWHPNADEWQYVLNGSMDLAVFASEGKASMSRLQKGDVGYVPKGYGHALRNSSDQPLDVLIVFNDGDYQSIDLNDWIMSNPNTVLDDVFQLSPQLLDKLPKESEILIPRS
notes: start Met followed by residues 31-389), recombinant in E. coli
With B2 the Km [10] was 200 µM, the kcat [10] was 15.4 s⁻¹ and the kcat/Km [10] was 77000 M⁻¹ s⁻¹.

B3: A8/A0, oxalate decarboxylase from Agrocybe aegerita, SEQ ID NO: 42 (Cyclocybe aegerita) (protein)
chain: T1 sequence (A0A8S0X585 with tags, fused parts or gaps)
notes: A0 from fungal cells (homogenate), A8 from culture supernatant of A. aegerita; A8 also recombinant in E. coli (pColdIV, pOTIpr or pET)
Work on B3 yielded a Km ([11]; other: A0, pH not given) of 80 µM, a kcat [11, 12] of 42 s⁻¹ and a kcat/Km [11, 12] of 525000 M⁻¹ s⁻¹.
